Consider 88 compounds from a melting point compilation (Tetko et al.; mined from patent text by program, amines drawn as free bases though some values may be those of a salt).

Regarding `CC1(C)CCC(C)(C)c2cc(-c3cc(-c4ccc(C(=O)O)cc4)ccc3C(=O)O)ccc21`, the melting point (usually the temperature of the solid-liquid transition) turned out to be 343 °C. With `C/C(NCc1ccccc1)=C(\C#N)C(N)=S` the figure was 157 to 159 °C; with `CCC(=O)NCCc1c[nH]c2ccc3c(c12)CCCO3`, 106 to 107 °C. As to `COC(=O)CCCc1cc2nc(Cl)ccc2n1S(=O)(=O)c1ccc(Br)cc1`, the melting point was 102 °C.

Compound `O=C(NC12CC3CC(CC1C3)C2)c1ccccc1C(c1ccc(O)cc1)c1ccc(O)cc1` yielded a melting point of 219 to 224 °C. In the case of `CCn1ccc(-c2ccc(C(=O)N3Cc4cccn4Cc4ccccc43)cc2)n1`, the melting point lay in the range of 180 to 183 °C. Consider `CC(C)OC(=O)N[C@H](C(=O)N[C@H](CN)C(C)C)C(C)C`, for which the melting point was 106 °C. As to `O=C(C=Cc1cccc(Br)c1)c1ccc(OC2CCCCO2)cc1` (stereo not drawn), the melting point lay within 166 to 168 °C. The result for `CCCc1c(C(=O)C(C)C)c2ccc(NC=O)cc2n1Cc1ccccc1Cl` reads 113 to 115 °C; that for `Cc1nc(N)c2nc(-c3ccccc3)cc-2[nH]1`, > 280 °C; that for `CO[C@@H]1CCN2C(=O)N(c3ccc(C#N)c4ccccc34)C(=O)[C@H]12` (relative stereo), 185 to 186 °C. With `CCOC(=O)c1cccc(O)c1C` the figure was 58 to 60 °C; with `CC(=O)Nc1c(C#N)c(OC(C)=O)c(C(C)=O)n1C`, 140 to 141 °C; with `O=c1c2c(CSc3ncnc4[nH]cnc34)cccc2nc(C(F)(F)F)n1-c1ccccc1Cl`, 218 to 219 °C.

Take `CCCCCS(=O)(=O)NC(=O)/C=C/c1cc(OCCCC)nn1Cc1ccc(Cl)cc1Cl`: the melting point fell in the range of 95 to 98 °C.

For `O=C1C(=Cc2ccc(Br)cc2)CCc2cc(OCCc3c[nH]cn3)ccc21`, the melting point lay in the range of 176 to 178 °C. With `CC(C)(C)OC(=O)NCCNC(=O)c1nc(Cl)sc1Br` the figure was 142 to 144 °C; with `COc1cc2c(c(OC)c1OC)CCC(C(=O)Cc1cccc(F)c1)C2C#N` (stereo not drawn), 120 to 122 °C. The result for `CCOc1ccc(C(=O)OC)cc1C(N)=O` reads 159 to 161 °C; that for `COc1c2c(c(C3CCCCC3)c3c4c(ccc13)OCO4)CNC2=O`, 244 to 246 °C; that for `CCCN1NCc2c(C3C(=O)Nc4ccc(Br)cc43)ncnc21` (stereo not drawn), 295 to 300 °C.

Compound `O=C(c1ccccc1Nc1ccc(O)cc1)N1CCOCC1` showed a melting point of 214 to 216 °C. The result for `O=C1C=C2CN(C(C(=O)C3CC3)c3ccccc3F)CCC2S1` (stereo not drawn) reads 123 to 125 °C; that for `CC1(C)C(=O)Nc2cc(C(=O)CBr)ccc21`, 230 to 232 °C; that for `CCCCCCCCCCCCCCCCCCOc1cc(OCc2ccccc2)cc(C(=O)N(CC(=O)O)CC(=O)O)c1`, 93 to 95 °C.

`N#Cc1c(N2CCN(C(=O)c3ccco3)CC2)c2cc(Cl)cnc2[nH]c1=O`: the melting point was found to be 303 °C. With `Oc1cc2c(cc1CNc1ccccc1)OCC2` the figure was 130 to 131 °C; with `CC1(C2CCCC2)Cc2cc(OCC(=O)O)c(Cl)c(Cl)c2C1=O` (stereo not drawn), 113 to 114 °C; with `CCOC(=O)C1=C(C)NC(C#N)=C(C(=O)OCC)C1c1cc([N+](=O)[O-])ccc1Cl` (stereo not drawn), 204 to 206 °C.

In turn, `Cc1cc2c(-c3ccccc3C)c(NC(=O)Nc3ccc(F)cc3F)c(=O)n(C)c2cc1Cl` showed a melting point of 227 to 229 °C. The result for `Cc1cc(C)c(C(=O)P(=O)(c2ccccc2)c2ccccc2)c(C)c1Cl` reads 125 to 126 °C. For `CN1CCN(C2=Nc3ccccc3Sc3ccccc32)C[C@@H]1CCc1ccccc1`, the melting point was in the range of 44 to 54 °C. The result for `O=C1Cc2cccc(S(=O)c3ccccc3Cl)c2N1` (stereo not drawn) reads 243 to 245 °C.

`O=S(=O)(C(=CNc1ccccc1)S(=O)(=O)c1ccccc1)c1ccccc1`: the melting point lay within 199 to 202 °C. `CS(=O)(=O)c1ccc(-c2cnn(Cc3c(F)c(F)c(F)c(F)c3F)c(=O)c2-c2ccc(F)cc2)cc1` returned a melting point of 115 to 116 °C. The result for `CCCNC(=O)N(CC(=O)OCC)CC1CC2c3cccc4[nH]cc(c34)CC2N(C)C1` (stereo not drawn) reads 109 to 110 °C; that for `N=C(NO)c1cccc2c1nc(-c1c(F)cccc1F)n2Cc1c(F)cccc1F`, 214 to 216 °C. `c1cc2c(c(OCC3CO3)c1)CC1OC1C2` (stereo not drawn) yielded a melting point of 85 to 87 °C.

Take `Cc1cc(=O)c2[nH]nc(-c3ccc(Cl)cc3)c2[nH]1`: the melting point is 324 to 327 °C. On to `O=S(c1ccccc1)c1cccnc1` (stereo not drawn), for which the melting point is 56 °C. With `CCOC(=O)c1ccc(-c2cnc(-c3ccc(C(F)(F)F)cc3)s2)cc1` the figure was 174 to 176 °C. With `CC(C)OC(=O)C=CC1C(C(=O)O)C1(C)C` (stereo not drawn) the figure was 98 °C. As for `O=C(NCc1ccccc1)C1C=Nc2ccccc2S1` (stereo not drawn), the melting point was in the range of 160 to 162 °C. Consider `O=C1CCC(Nc2nccc(-n3ncc4ccccc43)n2)CC1`, for which the melting point lay in the range of 212 to 213 °C.

`C#CCN(c1ccc(C(=O)O)cc1)C1CCc2cc3nc(COC(=O)C(C)(C)C)[nH]c(=O)c3cc21` (racemic) yielded a melting point of 133 °C. The result for `CCCCCCOc1ccc(NC(=O)Nc2ccccc2CCc2cc(C(C)(C)C)c(O)c(C(C)(C)C)c2)cc1` reads 174 to 176 °C.

`Cc1noc(NS(=O)(=O)c2cccc3c(NC(=O)C(C)C)cccc23)c1C` returned a melting point of 177 to 180 °C. The result for `CC(=O)C(Cc1cc(O)c(O)c([N+](=O)[O-])c1)C(C)=O` reads 118 to 128 °C; that for `O=C1c2ccc(O)cc2C(=O)N1c1cccc(O)c1`, 270 °C; that for `Fc1cc(F)c2c(c1)C(n1cc[nH]c1=S)CC2` (single isomer, unassigned; (+)), 191 to 193 °C.

`CNc1cc(Oc2ccc3c(c2)CCCN3C(=O)Nc2ccc(C(C)(C)C)cc2)ncn1` returned a melting point of 175 to 176 °C. The result for `CC(=O)SCC(Cc1ccccc1)C(=O)NC1(C(=O)O)CC1` (stereo not drawn) reads 169 to 171 °C; that for `CCOC(=O)C1(n2cc(Br)cc2C(=O)C(Cl)(Cl)Cl)CC(=O)NC1=O` (stereo not drawn), 196 to 198 °C; that for `CCC1(c2cccc(O)c2)CNCC(C)O1` (stereo not drawn), 75 to 105 °C. The result for `COC1CCN(C(=O)COc2cc(-c3ccccc3)nc3ccccc23)CC1` reads 96 °C. The result for `Cc1cccc(NC(=O)NCC(=O)N(CC(=O)OC(C)(C)C)c2cccc(OC(F)(F)F)c2)c1` reads 125 °C; that for `CCn1c(C(c2cccc(F)c2)c2cccc(F)c2)nc(-c2ccncc2)c1-c1ccc(Cl)cc1`, 184 to 186 °C. For the compound `Fc1ccc2c(c1)CC[C@H](CNCCNc1ncccn1)O2`, the melting point was determined as 103 °C. The result for `Cc1c(-c2ccccc2)oc2c(C(=O)N(C)CCO)cccc2c1=O` reads 128 to 130 °C. With `CCCCCCCCCCCCCCCCCCOc1cccc(N(CC(=O)OCc2ccccc2)CC(=O)OCc2ccccc2)c1` the figure was 55 to 57 °C; with `COc1ccc(SCc2c(C(C)C)nc(C(C)C)c(CO)c2-c2ccc(F)cc2)cc1`, 92 to 93 °C; with `Cc1c(C(=O)Nc2ccc(OCC(C)C)c(C#N)c2)cnn1C`, 160 to 162 °C. On to `CCNC(CC)CCOc1ccc(-c2ccc(C(=O)O)cc2)cc1-c1ccc2c(c1)C(C)(C)CCC2(C)C` (stereo not drawn), for which the melting point was determined as 195 °C. The result for `CCCCCCCCc1ccc(CCC(N)(CO)CO)cc1` reads 103 to 105 °C; that for `O=S(=O)(C1CC1)C(F)(F)C(O)(Cn1cncn1)c1ccc(F)cc1F` (stereo not drawn), 130 to 132 °C; that for `c1ccc2c(c1)ncc1ncsc12`, 114 to 116 °C. With `CO/C=C1/C(=O)NC(=O)c2cc(Br)ccc21`, the melting point fell in the range of 242 to 243 °C. The result for `CCOc1ccc2[nH]c(=O)n(-c3ccccc3Cl)c2c1` reads 97 °C; that for `O=C(O)CCC(=O)N(CCCOc1ccc(C(=O)O)cc1)c1ccc(Cl)cc1`, 155 to 158 °C. With `COC(=O)c1cc(CO)ccc1O` the figure was 66 to 67 °C; with `CONC(=O)Nc1ccc(-c2sc3c(c2CN(C)C(C)c2ccccn2)c(=O)n(-c2ccccn2)c(=O)n3Cc2c(F)cccc2F)cc1` (stereo not drawn), 143 to 144 °C. For the compound `CS(=O)(=O)c1ccc(-c2cc(Cl)ccc2OCC(=O)O)cc1Cl`, the melting point was 140 to 142 °C.

`COCOC1=C(C(=O)OC)CC(C#N)(c2ccc(OC)c(OCC3CC3)c2)CC1` (stereo not drawn) displayed a melting point of 98 to 99 °C. `CC(=O)OC1CSC(Oc2ccc(-c3ccnc(F)c3)nc2Cl)C(OC(C)=O)C1OC(C)=O` (stereo not drawn): the melting point was 226 °C.

Take `Clc1ccccc1-c1nc(-c2ccccc2)c(-c2ccccc2)[nH]1`: the melting point was 196 to 197 °C.

In the case of `CNC(=O)C(NC(=O)c1ccc(F)cc1C(F)(F)F)C(C[N+](=O)[O-])c1ccccc1` (stereo not drawn), the melting point came to 223 °C. The result for `CC(=O)Nc1ccnn1-c1c(F)c(F)c(C(F)(F)F)c(F)c1F` reads 102 to 104 °C.

On to `Cn1c(C(=O)N[C@H]2CCCC[C@H]2C(=O)N[C@H](C#N)C2CC2)cc2ccccc21`, for which the melting point lay in the range of 242 to 246 °C.

Consider `CCn1c(=O)c2[nH]c(C(C)C)nc2n(Cc2ccc3c(c2)OCO3)c1=O`, for which the melting point was in the range of 200 to 232 °C. With `COC(=O)Cc1sc(SCc2cc(O)nc(C)n2)nc1C` the figure was 130 to 132 °C. With `Cc1nc2c(N)nc3ccccc3c2n1CCOCCNC(=O)NC1CCCCC1` the figure was 207 to 209 °C. Take `CCCC(=O)c1cnc2c(OCCOCCO)cccc2c1Nc1ccccc1C`: the melting point was in the range of 144 to 146 °C. With `NC(=O)c1ccc(Cc2ccccc2)cn1` the figure was 193 to 196 °C; with `CC(=O)NC1CC(C)(C)NC(C)(C)C1`, 100 to 102 °C. The result for `O=P(O)(O)C(O)c1ccccc1` (stereo not drawn) reads 160 to 162 °C; that for `Nc1ccc(OCC(=O)OCCO)cc1`, 104 to 106 °C; that for `O=C1Cc2c(cccc2NC(=O)c2cccn(-c3ccc(F)cc3)c2=O)N1`, 293 to 295 °C. With `Cc1cccc(C=CCC(C(=O)C=Cc2ccc(Cl)cc2)c2ccccc2)c1` (stereo not drawn) the figure was 89 to 93 °C.
